# Assay results: ChEMBL document CHEMBL1201862, “PubChem BioAssay data set” (2004)
#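 In this assay, cells in 96-well plates receive the compound at five concentrations for 48 hours. Endpoints are linearly interpolated between the surrounding concentrations. At the GI50, growth is halved.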 The source made the active and inactive calls. Rule as the data show it: active = GI50 up to about 1.1 µM and inactive = higher.
# Assays:
# Experiment in all cases: NCI-60 cell line screen, 48 h
# HOP-92 = test system: HOP-92
# SR = test system: SR
# SN12C = test system: SN12C
# HOP-62 = test system: HOP-62
# DU-145 = test system: DU-145
# Malme-3M = test system: Malme-3M
# SK-OV-3 = test system: SK-OV-3
# OVCAR-3 = test system: OVCAR-3
# BT-549 = test system: BT-549
# SF-295 = test system: SF-295
# HT-29 = test system: HT-29
# SK-MEL-2 = test system: SK-MEL-2
# SK-MEL-5 = test system: SK-MEL-5
# PC-3 = test system: PC-3
# HCT-116 = test system: HCT-116
# OVCAR-8 = test system: OVCAR-8
# OVCAR-4 = test system: OVCAR-4
# K562 = test system: K562
# MCF7 = test system: MCF7
# LOX IMVI = test system: LOX IMVI
SMILES,GI50 (HOP-92),GI50 (SR),GI50 (SN12C),GI50 (HOP-62),GI50 (DU-145),GI50 (Malme-3M),GI50 (SK-OV-3),GI50 (OVCAR-3),GI50 (BT-549),GI50 (SF-295),GI50 (HT-29),GI50 (SK-MEL-2),GI50 (SK-MEL-5),GI50 (PC-3),GI50 (HCT-116),GI50 (OVCAR-8),GI50 (OVCAR-4),GI50 (K562),GI50 (MCF7),GI50 (LOX IMVI)
Cc1nc(O)nc2nc3ccc(Cl)cc3c(NC(C)(CO)CO)c12,74.1 µM (inactive),99.8 µM (inactive),> 100 µM (inactive),21.2 µM (inactive),> 70.1 µM (inactive),> 100 µM (inactive),36.9 µM (inactive),> 61.2 µM (inactive),62.8 µM (inactive),66.5 µM (inactive),> 100 µM (inactive),> 100 µM (inactive),> 60 µM (inactive),57.9 µM (inactive),26.7 µM (inactive),72.3 µM (inactive),> 57 µM (inactive),> 100 µM (inactive),> 68.4 µM (inactive),55.6 µM (inactive)
COc1ccc(N2C(=O)C3c4[nH]c5ccc(OC)cc5c4C4CCC(c5ccccc5)CC4C3C2=O)cc1 (stereo not given),16.7 µM (inactive),0.451 µM (active),6.15 µM (inactive),5.62 µM (inactive),29.9 µM (inactive),11.4 µM (inactive),12.2 µM (inactive),16.7 µM (inactive),19.6 µM (inactive),7.73 µM (inactive),4.04 µM (inactive),20.3 µM (inactive),22.4 µM (inactive),19.2 µM (inactive),1.11 µM (active),7.48 µM (inactive),4.21 µM (inactive),7.67 µM (inactive),19.6 µM (inactive),17.3 µM (inactive)
COc1cc(C2c3[nH]c4ccc(F)cc4c3C[C@H]3COC(=O)N23)cc(OC)c1O (stereo not given in full),15.8 µM (inactive),0.47 µM (active),13.5 µM (inactive),5.71 µM (inactive),15.9 µM (inactive),14.7 µM (inactive),15.5 µM (inactive),13.4 µM (inactive),43.2 µM (inactive),12.1 µM (inactive),7.55 µM (inactive),26.2 µM (inactive),10.7 µM (inactive),9.16 µM (inactive),5.78 µM (inactive),10.1 µM (inactive),16.2 µM (inactive),14.8 µM (inactive),3.33 µM (inactive),5.43 µM (inactive)
COCC(=O)OC1CCn2c1nc1c2C(=O)C(C)=C(NC(C)=O)C1=O (stereo not given),1.98 µM (inactive),1.94 µM (inactive),7.26 µM (inactive),21.5 µM (inactive),15.3 µM (inactive),2.77 µM (inactive),15.4 µM (inactive),1.66 µM (inactive),11.7 µM (inactive),16.3 µM (inactive),9.93 µM (inactive),4.04 µM (inactive),13.5 µM (inactive),2.27 µM (inactive),3.05 µM (inactive),3.48 µM (inactive),1.85 µM (inactive),2.79 µM (inactive),1.84 µM (inactive),4.34 µM (inactive)
COc1ccc2c(c1)-c1nc(=S)n(CCN(C)C)c3ccc([N+](=O)[O-])c(c13)N2,6.61 µM (inactive),0.419 µM (active),0.638 µM (active),0.594 µM (active),0.923 µM (active),0.693 µM (active),0.57 µM (active),1.23 µM (inactive),10.3 µM (inactive),0.794 µM (active),0.498 µM (active),7.31 µM (inactive),3.65 µM (inactive),1.06 µM (active),0.247 µM (active),0.484 µM (active),2.36 µM (inactive),0.389 µM (active),0.861 µM (active),0.738 µM (active)
c1c2c(cc3c1OCO3)-c1cc3ccc4c(c3c[n+]1CC2)OCO4 [COPTISINE CHLORIDE],5.57 µM (inactive),0.486 µM (active),2.09 µM (inactive),1.4 µM (inactive),1.3 µM (inactive),0.259 µM (active),3.3 µM (inactive),0.798 µM (active),> 5.85 µM (inactive),0.927 µM (active),5.65 µM (inactive),0.555 µM (active),0.587 µM (active),0.944 µM (active),0.447 µM (active),1.16 µM (inactive),5.09 µM (inactive),0.486 µM (active),1.24 µM (inactive),1.01 µM (active)
Cc1ncc([N+](=O)[O-])n1CCNS(=O)(=O)CCCn1ncnc1[N+](=O)[O-],> 100 µM (inactive),> 100 µM (inactive),> 100 µM (inactive),> 100 µM (inactive),> 100 µM (inactive),> 100 µM (inactive),> 100 µM (inactive),> 100 µM (inactive),> 100 µM (inactive),> 100 µM (inactive),> 100 µM (inactive),> 100 µM (inactive),> 100 µM (inactive),> 100 µM (inactive),> 100 µM (inactive),> 100 µM (inactive),> 100 µM (inactive),> 100 µM (inactive),> 100 µM (inactive),> 100 µM (inactive)
O=C1c2ccccc2S(=O)(=O)c2cc(-c3nn[nH]n3)ccc21 [DOXANTRAZOLE],> 100 µM (inactive),> 100 µM (inactive),> 100 µM (inactive),> 100 µM (inactive),> 100 µM (inactive),> 100 µM (inactive),> 100 µM (inactive),> 100 µM (inactive),> 100 µM (inactive),> 100 µM (inactive),> 100 µM (inactive),> 100 µM (inactive),> 100 µM (inactive),> 100 µM (inactive),> 100 µM (inactive),> 100 µM (inactive),> 100 µM (inactive),> 100 µM (inactive),> 100 µM (inactive),> 100 µM (inactive)
COc1ncc(C#CC(=O)c2ccccc2OC)c(OC)n1,2.32 µM (inactive),0.202 µM (active),0.684 µM (active),17.7 µM (inactive),5.87 µM (inactive),1.61 µM (inactive),25.6 µM (inactive),3.15 µM (inactive),1.93 µM (inactive),16.9 µM (inactive),1.57 µM (inactive),2.3 µM (inactive),2.06 µM (inactive),1.86 µM (inactive),4.98 µM (inactive),2.06 µM (inactive),5.78 µM (inactive),0.39 µM (active),0.736 µM (active),0.281 µM (active)
Cc1nc2cc([N+](=O)[O-])ccc2c(NCCCN(C)C)c1C,1.95 µM (inactive),4.45 µM (inactive),11.4 µM (inactive),10.9 µM (inactive),21.7 µM (inactive),6.22 µM (inactive),31.5 µM (inactive),6.31 µM (inactive),11.8 µM (inactive),17.3 µM (inactive),2.76 µM (inactive),10.5 µM (inactive),10.1 µM (inactive),4.71 µM (inactive),4.68 µM (inactive),11.5 µM (inactive),3.03 µM (inactive),3.77 µM (inactive),2.94 µM (inactive),11 µM (inactive)
